Converted amounts (≈) assume the structure as drawn. Where two headings read alike, the source gives them in different places.
Experiments:
MEL-2 (melanoma) = assay: Cytotoxicity against cultured human melanoma cells (SRB); assay type: cell-based; conditions: for ED50 (Std. Dev.) MEL-2: derivatives, Tables 2-6; for IC50: Homo sapiens, MEL2, 72 h, read-out: ED50 MEL-2
Method: (§1) The plates were incubated for three days. […] Dose response studies were performed to generate ED50 values.

LOX melanoma cell line = assay: Cytotoxicity of betulinic acid derivatives; assay type: cell-based, human; conditions: Tables 2-6
Method: as §1

[1] = system: KB (human oral epidermoid carcinoma); assay: Cytotoxicity against cultured human cancer cells (SRB); assay type: cell-based; conditions: for ED50 (Std. Dev.) KB: derivatives, Tables 2-6; for IC50: Homo sapiens, 72 h, read-out: ED50 KB
Method: as §1

[2] = system: human melanoma and nonmelanoma cancer cell lines
[3] = system: human melanoma and nonmelanoma cancer cell lines; assay: Cytotoxicity profile across the panel of human cancer cell lines; conditions: Table 1 panel
U373 (glioma) = assay: Cytotoxicity against cultured human cancer cells (SRB); assay type: cell-based; conditions: for IC50: Homo sapiens, U373 MG, 72 h, read-out: ED50 U373
Method: as §1

ZR-75-1 (breast) = assay: as above; assay type: cell-based; conditions: for IC50: Homo sapiens, ZR-75-1, 72 h, read-out: ED50 ZR 75-1
Method: as §1

LU-1 (lung) = assay: as above; assay type: cell-based; conditions: three days incubation; for IC50: Homo sapiens, 72 h, read-out: ED50 LU-1
Method: as §1

A431 (squamous cells) = assay: as above; assay type: cell-based; conditions: for IC50: Homo sapiens, A-431, 72 h, read-out: ED50 A431
Method: as §1

BC-1 (breast) = assay: as above; assay type: cell-based; conditions: for IC50: Homo sapiens, 72 h, read-out: ED50 BC-1
Method: as §1

LNCaP (prostate) = assay: as above; assay type: cell-based; conditions: for IC50: Homo sapiens, LNCaP, 72 h, read-out: ED50 LNCaP
Method: as §1

COL-2 (colon) = assay: as above; assay type: cell-based; conditions: for IC50: Homo sapiens, Col2, 72 h, read-out: ED50 COL-2
Method: as §1

HT-1080 (sarcoma) = assay: as above; assay type: cell-based; conditions: three days incubation; for IC50: Homo sapiens, HT-1080, 72 h, read-out: ED50 HT-1080
Method: as §1

[4] = three days incubation, SRB, Table 1 and text
[5] = three days incubation, SRB, Table 1

| Structure (SMILES) | ED50 (Std. Dev.) MEL-2 (MEL-2 (melanoma)) [µg/mL] | ED50 (Std. Dev.) LOX (LOX melanoma cell line) [µg/mL] | ED50 (Std. Dev.) KB [1] [µg/mL] | IC50 (MEL-2 (melanoma); [4]) [µg/mL] | cytotoxic activity profile, cell-type selectivity [3] | IC50 (U373 (glioma); three days incubation, SRB) [µg/mL] | IC50 (ZR-75-1 (breast); three days incubation, SRB) [µg/mL] | IC50 (BC-1 (breast); three days incubation, SRB) [µg/mL] | IC50 (LNCaP (prostate); three days incubation, SRB) [µg/mL] | IC50 (COL-2 (colon); three days incubation, SRB) [µg/mL] | further results |
| --- | --- | --- | --- | --- | --- | --- | --- | --- | --- | --- | --- |
| C=C(C)[C@@H]1CC[C@]2(CO)CC[C@]3(C)[C@H](CC[C@@H]4[C@@]5(C)CC[C@H](O)C(C)(C)[C@@H]5CC[C@]43C)[C@@H]12 [Compound 12, lup-20(29)-ene-3β,28-diol] | >20 | >20 | >20 |  |  |  |  |  |  |  |  |
| C=C(C)C1CCC2(C(=O)O)CCC3(C)C(CCC4C5(C)CCC(=NOC)C(C)(C)C5CCC43C)C12 (stereo not shown) [Compound 13] | 8.3 (≈ 17.2 µM) | >20 | 4.3 (≈ 8.89 µM) |  |  |  |  |  |  |  | cytotoxicity and selectivity compared with betulinic acid or the corresponding analog [2]: decrease in selective cytotoxicity |
| C=C(C)[C@@H]1CC[C@]2(C(=O)OC)CC[C@]3(C)[C@H](CC[C@@H]4[C@@]5(C)CC[C@H](O)C(C)(C)[C@@H]5CC[C@]43C)[C@@H]12 [Compound 14, Methyl betulinate] | 8.3 (≈ 17.6 µM) | 12.5 (≈ 26.6 µM) | 11.8 (≈ 25.1 µM) |  |  |  |  |  |  |  |  |
| C=C(C)[C@@H]1CC[C@]2(C)CC[C@]3(C)[C@H](CC[C@@H]4[C@@]5(C)CC[C@H](O)C(C)(C)[C@@H]5CC[C@]43C)[C@@H]12 [Compound 15, Lupeol] | 17.6 (≈ 41.2 µM) | 15.6 (≈ 36.6 µM) | >20 |  |  |  |  |  |  |  |  |
| C=C(C)[C@@H]1CC[C@]2(C)CC[C@]3(C)[C@H](CC[C@@H]4[C@@]5(C)CC[C@H](OC(=O)c6ccccc6)C(C)(C)[C@@H]5CC[C@]43C)[C@@H]12 [Compound 16, Lupeol benzoate] | >20 | >20 | >20 |  |  |  |  |  |  |  |  |
| COC(=O)C[C@](O)(CCCC(C)(C)O)C(=O)O[C@@H]1C(OC)=C[C@]23CCCN2CCc2cc4c(cc2[C@H]13)OCO4 [Homoharringtonine] |  |  |  | 0.04 (≈ 0.0733 µM) | relatively intense, nonselective cytotoxic activity | 0.2 (≈ 0.367 µM) | 0.06 (≈ 0.11 µM) | 0.03 (≈ 0.055 µM) | 0.03 (≈ 0.055 µM) | 0.1 (≈ 0.183 µM) | IC50 (LU-1 (lung)): 0.03 µg/mL (≈ 0.055 µM); IC50 (A431 (squamous cells); three days incubation, SRB): 0.02 µg/mL (≈ 0.0367 µM); IC50 (HT-1080 (sarcoma)): 0.01 µg/mL (≈ 0.0183 µM) |
| CO[C@H](C(=O)[C@@H](O)[C@@H](C)O)[C@@H]1Cc2cc3cc(O[C@H]4C[C@@H](O[C@H]5C[C@@H](O)[C@H](O)[C@@H](C)O5)[C@H](O)[C@@H](C)O4)c(C)c(O)c3c(O)c2C(=O)[C@H]1O[C@H]1C[C@@H](O[C@H]2C[C@@H](O[C@H]3C[C@](C)(O)[C@H](O)[C@@H](C)O3)[C@@H](O)[C@@H](C)O2)[C@H](O)[C@@H](C)O1 [Mithramycin A] |  |  |  |  | relatively intense, nonselective cytotoxic activity |  |  |  |  |  | ED50 MEL-2 (MEL-2 (melanoma); [4]): 1.2 µg/mL (≈ 1.11 µM); ED50 U373 (U373 (glioma); three days incubation, SRB): 0.04 µg/mL (≈ 0.0369 µM); ED50 ZR 75-1 (ZR-75-1 (breast); three days incubation, SRB): 0.2 µg/mL (≈ 0.184 µM); ED50 LU-1 (LU-1 (lung)): 0.2 µg/mL (≈ 0.184 µM); ED50 A431 (A431 (squamous cells); three days incubation, SRB): 0.09 µg/mL (≈ 0.0829 µM); ED50 BC-1 (BC-1 (breast); three days incubation, SRB): 0.3 µg/mL (≈ 0.276 µM); ED50 LNCaP (LNCaP (prostate); three days incubation, SRB): 0.05 µg/mL (≈ 0.0461 µM); ED50 COL-2 (COL-2 (colon); three days incubation, SRB): 0.06 µg/mL (≈ 0.0553 µM); ED50 KB [1, 5]: 0.09 µg/mL (≈ 0.0829 µM); ED50 HT-1080 (HT-1080 (sarcoma)): 1.5 µg/mL (≈ 1.38 µM) |
| COc1cc([C@@H]2c3cc4c(cc3[C@H](O)[C@H]3COC(=O)[C@H]23)OCO4)cc(OC)c1OC [Podophyllotoxin] |  |  |  | 0.003 (≈ 0.00724 µM) | relatively intense, nonselective cytotoxic activity |  |  |  |  |  | IC50 (U373 (glioma)): 0.004 µg/mL (≈ 0.00965 µM); IC50 (ZR-75-1 (breast)): 0.4 µg/mL (≈ 0.965 µM); IC50 (A431 (squamous cells)): 0.03 µg/mL (≈ 0.0724 µM); IC50 (BC-1 (breast)): 0.03 µg/mL (≈ 0.0724 µM); IC50 (LNCaP (prostate)): 0.04 µg/mL (≈ 0.0965 µM); IC50 (COL-2 (colon)): 0.005 µg/mL (≈ 0.0121 µM); IC50 [1, 5]: 0.08 µg/mL (≈ 0.193 µM) |
| CC(=O)O[C@H]1C(=O)[C@@]2(C)[C@H]([C@H](OC(=O)c3ccccc3)[C@]3(O)C[C@H](OC(=O)[C@H](O)[C@@H](NC(=O)c4ccccc4)c4ccccc4)C(C)=C1C3(C)C)[C@]1(OC(C)=O)CO[C@@H]1C[C@@H]2O [Taxol, paclitaxel] |  |  |  | 0.06 (≈ 0.0703 µM) | relatively intense, nonselective cytotoxic activity | 0.008 (≈ 0.00937 µM) | 0.02 (≈ 0.0234 µM) | 0.02 (≈ 0.0234 µM) | 0.02 (≈ 0.0234 µM) | 0.02 (≈ 0.0234 µM) | IC50 [1, 5]: 0.02 µg/mL (≈ 0.0234 µM) |
| CC[C@]1(O)C[C@H]2CN(CCc3c([nH]c4ccccc34)[C@@](C(=O)OC)(c3cc4c(cc3OC)N(C=O)[C@H]3[C@@](O)(C(=O)OC)[C@H](OC(C)=O)[C@]5(CC)C=CCN6CC[C@]43[C@@H]65)C2)C1 [Vincristine] |  |  |  | 0.02 (≈ 0.0242 µM) | relatively intense, nonselective cytotoxic activity | 0.06 (≈ 0.0727 µM) | 0.4 (≈ 0.485 µM) | 0.01 (≈ 0.0121 µM) | 0.1 (≈ 0.121 µM) | 0.02 (≈ 0.0242 µM) | IC50 (LU-1 (lung)): 0.05 µg/mL (≈ 0.0606 µM); IC50 (A431 (squamous cells); three days incubation, SRB): 0.01 µg/mL (≈ 0.0121 µM); IC50 (HT-1080 (sarcoma)): 0.02 µg/mL (≈ 0.0242 µM) |

Source: patent US7414042B2, “Method and composition for selectively inhibiting melanoma” (The Board of Trustees of The University of Illinois, priority 1995, dated 2008)
